Results taken from US20190002448A1, “SUBSTITUTED BENZOFURANYL AND BENZOXAZOLYL COMPOUNDS AND USES THEREOF” (Karyopharm Therapeutics Inc., priority 2015, published 2019).

Experiments:
Format in all cases: cell-based
3T3 cells = assay: MTT cell proliferation assay, 3T3 cells; conditions: Mus musculus, NIH3T3; 3T3 fibroblast cells; approximately 64-72 hours incubation
Protocol: (§1) The MTT cell proliferation assay was used to study the cytotoxic properties of the compounds. The assay was performed according to the method described by Roche Molecular Biochemicals, with minor modifications. The assay is based on the cleavage of the tetrazolium salt, MTT, in the presence of an electron-coupling reagent. The water-insoluble formazan salt produced must be solubilized in an additional step. Cells grown in a 96-well tissue culture plate were incubated with the MTT solution for approximately 4 hours. After this incubation period, a water-insoluble formazan dye formed. After solubilization, the formazan dye was quantitated using a scanning multi-well spectrophotometer (ELISA reader). […] The cells were seeded at 5,000-10,000 cells in each well of 96-well plate in 100 μL of fresh culture medium and were allowed to attach overnight. The stock solutions of the compounds were diluted in 100 μL cell culture medium to obtain eight concentrations of each test compound, ranging from 1 nM to 30 μM. […] All optical densities were measured at 490 nm using a Vmax Kinetic Microplate Reader (Molecular Devices). In most cases, the assay was performed in duplicate and the results were presented as a mean percent inhibition to the negative control±SE. The following formula was used to calculate the percent of inhibition: Inhibition (%)=(1−(ODo/OD))×100.
(§2) The compounds were tested against MS751, Z138 and 3T3 cells. The MS751 cell line is derived from a metastasis to lymph node of human cervix from a patient diagnosed with squameous cell carcinoma of the cervix. The Z138 cell line is a mature B-cell acute lymphoblastic leukemia cell line derived from a patient with chronic lumphocytic leukemia. 3T3 cells are standard fibroblast cells; they were originally isolated from Swiss mouse embryo tissue.

MS751 cells = assay: MTT cell proliferation assay, MS751 cells; conditions: Homo sapiens; MS751 cervical squamous cell carcinoma cells; approximately 64-72 hours incubation; read-out: MTT Assay IC50 MS-751
Protocol: as §1, §2

Z138 cells = assay: MTT cell proliferation assay, Z138 cells; conditions: Homo sapiens, Z-138, approximately 64-72 hours incubation
Protocol: as §1, §2

Measured: IC50

Nc1ccc(/C=C/C(=O)NCc2cc3cc(-c4ccc(C(=O)N5CCC(F)(F)CC5)cc4F)cc(OC4CCC4)c3o2)cn1 [Compound 105, (E)-3-(6-aminopyridin-3-yl)-N-((7-cyclobutoxy-5-(4-(4,4-difluoropiperidine-1-carbonyl)-2-fluorophenyl)benzofuran-2-yl)methyl)acrylamide]
100 to 5000 nM: all assays above

Nc1ccc(/C=C/C(=O)NCc2cc3cc(-c4ccc(C(=O)N5CCC(F)(F)CC5)cc4F)cc(Oc4ccc(F)cc4)c3o2)cn1 [Compound 103, (E)-3-(6-aminopyridin-3-yl)-N-((5-(4-(4,4-difluoropiperidine-1-carbonyl)-2-fluorophenyl)-7-(4-fluorophenoxy)benzofuran-2-yl)methyl)acrylamide]
100 to 5000 nM: all assays above

Nc1ccc(/C=C/C(=O)NCc2cc3cc(-c4ccc(C(=O)N5CCC(F)(F)CC5)cc4)cc(Oc4ccc(F)cc4)c3o2)cn1 [Compound 100, (E)-3-(6-aminopyridin-3-yl)-N-((5-(4-(4,4-difluoropiperidine-1-carbonyl)phenyl)-7-(4-fluorophenoxy)benzofuran-2-yl)methyl)acrylamide]
100 to 5000 nM: all assays above

Nc1ccc(/C=C/C(=O)NCc2cc3cc(-c4ccc(C(=O)N5CCC(F)(F)CC5)cc4)cc(Oc4cccc(F)c4)c3o2)cn1 [Compound 101, (E)-3-(6-aminopyridin-3-yl)-N-((5-(4-(4,4-difluoropiperidine-1-carbonyl)phenyl)-7-(3-fluorophenoxy)benzofuran-2-yl)methyl)acrylamide]
100 to 5000 nM: all assays above

Nc1ccc(/C=C/C(=O)NCc2cc3cc(-c4ccc(C(=O)N5CCC(F)(F)CC5)cc4)cc(OC4CCC4)c3o2)cn1 [Compound 104, (E)-3-(6-aminopyridin-3-yl)-N-((7-cyclobutoxy-5-(4-(4,4-difluoropiperidine-1-carbonyl)phenyl)benzofuran-2-yl)methyl)acrylamide]
100 to 5000 nM: all assays above

Nc1ccc(/C=C/C(=O)NCc2cc3cc(-c4ccc(C(=O)N5CCC(F)(F)CC5)cc4F)cc(Oc4cccc(F)c4)c3o2)cn1 [Compound 102, (E)-3-(6-aminopyridin-3-yl)-N-((5-(4-(4,4-difluoropiperidine-1-carbonyl)-2-fluorophenyl)-7-(3-fluorophenoxy)benzofuran-2-yl)methyl)acrylamide]
100 to 5000 nM: all assays above
